Data as given in patent publication US4390547A, “2,2-Dimethyl-3-(substituted ethyl)cyclopropane carboxylate pesticidal compositions and methods” (priority 1981, dated 1983).

Legend:
[1] = tested on: houseflies (Musca domestica); experiment: Mortality test against houseflies by the settling mist method (Utility Examples 2 and 3); type: in vivo; settings: cis/trans 50/50, 24 hours
Protocol: 0.2 part of each of Compounds (1) to (38) was prepared and 0.8 part of piperonyl butoxide was added to each of them. To this mixture was added a sufficient amount of kerosene to make 100 parts, followed by stirring. By this procedure there was obtained an oil preparation of each Compound.
To 0.1 part of each of Compounds (1) to (38) was added 0.08 part of permethrin, followed by the addition of a sufficient amount of kerosene to make 100 parts. The mixture was stirred to obtain an oil preparation of each compound.
(§1) By the settling mist method, a mortality test against houseflies, (Musca domestica) was carried out using the oil preparations obtained according to Formulation Example 1 from Compounds (1), (5), (7), (9), (11) and (15) [Each compound is a mixture of cis- and trans-isomer in a ratio 50/50]. After 24 hours, the flies were examined for deaths. The mortality (%) was not less than 90% for each of Compounds (1), (5), (7), (9), (11) and (15).
as §1, with “against houseflies” for “against houseflies, (Musca domestica)”, “obtained in” for “obtained according to”, “Example 3” for “Example 1”, “(9), (11), (12), (15), (17)” for “(9), (11)”, “and (28)” for “and (15)”, “and (28).” for “and (15).”

green rice leafhoppers = experiment: Mortality of green rice leafhoppers on sprayed rice seedlings (Utility Example 1); settings: green rice leafhopper, in vivo, 24 h
Protocol: (§2) To 30 parts of each of Compounds (1) to (38) were added 50 parts of xylene and 20 parts of Sorpol SM-200 (a surfactant, trademark of Toho Chemical Co., Ltd.). The mixture was stirred well and dissolved to obtain a 30% emulsifiable concentrate.
The emulsifiable concentrate prepared from Compounds (7), (11), (12), (15), (17), (21) and (22) [Each compound is a mixture of cis- and trans-isomer in a ratio of 50/50] in Formulation Example 5 were each diluted 300-fold with water. Then, each of the dilutions was sprayed over rice seedlings 25 days after sowing at the rate of 10 ml/pot. The pot was covered with a wire net and 15 green rice leafhoppers were released under the net. After 24 hours, the leafhoppers were examined for deaths. The mortality (%) was not less than 90% for each of Compounds (7), (11), (12), (15), (17), (21) and (22).

[2] = tested on: common cabbage worms (Pieris rapae crucivora); settings: common cabbage worm, in vivo, 24 h
Protocol: as §2
The emulsifiable concentrate prepared from Compounds (7), (11) and (15) [Each compound is a mixture of cis- and trans-isomer in a ratio 20/80] in Formulation Example 5 were each diluted 1000-fold with water. Each of 15 common cabbage worms (Pieris rapae crucivora) per group were dipped into each of the dilutions for three seconds. Then, the worms were released on the leaves of the cabbage. After 24 hours, the worms were examined for deaths. The mortality (%) was not less than 90% for each of Compounds (7), (11) and (15).

[3] = tested on: housefly (Musca domestica); experiment: Mortality test against houseflies by topical application (Test Example 1); type: in vivo; settings: 24 h
Protocol: Each test compound was accurately weighed and a 1% solution and an 0.1% solution of the sample in acetone were prepared. A 1 μl portion of either of the above solutions was micropipetted onto the thoracic dorsal part of each female adult housefly (Musca domestica) under ether anaesthesia and the fly was released in a high-walled dish together with feed. The dish was covered with a metal-wire net and maintained at 25° C. After 24 hours, the test flies were inspected for deaths and the mortality (%) was calculated. Thirty test flies were used per concentration group.

guppies = experiment: Fish toxicity test (Test Example 4); type: in vivo; settings: concentration killing 50% of female guppies during 48 hours, 20° C.; [Mixture] = cis/trans 50/50
Protocol: The mixture was stirred well to prepare a test water. Ten female guppies from 3 to 4 months of age were released into the test water and maintained at 20° C. The concentration of the test compound at which 50% of the guppies were killed during the ensuring 48 hours was determined. [This concentration is referred to as TLm (medium tolerance limit, ppm)].
A rank corresponds to TLm of not less than 10 ppm.
B rank corresponds to TLm of 0.5-10 ppm.
C rank corresponds to TLm of not more than 0.5 ppm.

[4] = Light stability test (Test Example 3); type: physicochemical; settings: glass plate, uv light
Protocol: Into 2.0 ml of acetone were dissolved 80 mg of each test compound. A 5 μl portion of the solution was taken and spread on a glass plate (Micro Standard Cover Glass, 18 m/m No. 1, 200 pcs, Matsunami Glass Ind., Ltd.) and the acetone was evaporated. The specimen was exposed to ultraviolet light from a fluorescent lamp (Tokyo Shibaura Electric Co., Ltd., FL20BL, glow-type, 100 V, 24.5 W, wavelength=3600 A) which was fixed just above the specimen at a distance of 11 cm at a temperature of 31°-35° C. for a predetermined exposure time. The test liquid was washed away with 1.0 ml of methanol containing 0.04% of dioctyl phthalate as an internal reference and high-speed liquid chromatography was carried out on the washings to determine the residual amount of the test compound.

[5] = oil preparation of Formulation Example 3 (0.1 part compound + 0.08 part permethrin)
[6] = oil preparation of Formulation Example 1 (0.2 part compound + 0.8 part piperonyl butoxide)

For CC1(C)C(CC(Cl)(Cl)Cl)C1C(=O)OCc1coc(Cc2ccccc2)c1 (stereo not drawn) [(28), 5-Benzyl-3-furylmethyl 2,2-dimethyl-3-(2,2,2-trichloroethyl)cyclopropanecarboxylate], the “mortality (%)” value [1, 5] was “not less than 90%”.
With C#CC(OC(=O)C1C(CC(Cl)(Cl)Cl)C1(C)C)c1cccc(Oc2ccccc2)c1 (stereo not drawn) [Compound (11), 3-Phenoxy-α-ethynylbenzyl 2,2-dimethyl-3-(2,2,2-trichloroethyl)cyclopropanecarboxylate] the “mortality (%)” value (green rice leafhoppers) was “not less than 90%” and the “mortality (%)” value [2] was “not less than 90%”.
For CC1(C)C(CC(Cl)(Cl)Cl)C1C(=O)OC(C#N)c1cccc(Oc2ccc(Cl)cc2)c1 (stereo not drawn) [(15), 3-(4-Chlorophenoxy)-α-cyanobenzyl 2,2-dimethyl-3-(2,2,2-trichloroethyl)cyclopropanecarboxylate], the “mortality (%)” value (green rice leafhoppers) was “not less than 90%” and the “mortality (%)” value [2] was “not less than 90%”.
In the case of CC(Cl)(Cl)CC1C(C(=O)OC(C#N)c2cccc(Oc3ccccc3)c2)C1(C)C (stereo not drawn) [Compound (9), 3-Phenoxy-α-cyanobenzyl 2,2-dimethyl-3-(2,2-dichloropropyl)cyclopropanecarboxylate], the “mortality (%)” value [1, 6] is reported as “not less than 90%” and the “mortality (%)” value [1, 5] is reported as “not less than 90%”.
With CC1(C)C(CC(Cl)(Cl)Cl)C1C(=O)OC(C#N)c1cccc(Oc2ccccc2)c1 (stereo not drawn) [Compound (7), 3-Phenoxy-α-cyanobenzyl 2,2-dimethyl-3-(2,2,2-trichloroethyl)cyclopropanecarboxylate] the “mortality (%)” value (green rice leafhoppers) was “not less than 90%” and the “mortality (%)” value [2] was “not less than 90%”.
With C#CC(OC(=O)[C@@H]1[C@@H](CC(Cl)(Cl)Cl)C1(C)C)c1cccc(Oc2ccccc2)c1 (relative stereo) [(11) [Trans-isomer], 3-Phenoxy-α-ethynylbenzyl 2,2-dimethyl-3-(2,2,2-trichloroethyl)cyclopropanecarboxylate] the mortality at 1 µg/fly [3] was 100%, the mortality at 10 µg/fly [3] was 100% and the “TLm (medium tolerance limit)” value (guppies) was “A (A rank corresponds to TLm of not less than 10 ppm.)”.
With C#CC(OC(=O)C1C(CC(Br)(Br)Br)C1(C)C)c1cccc(Oc2ccccc2)c1 (stereo not drawn) [Compound (12), 3-Phenoxy-α-ethylnylbenzyl 2,2-dimethyl-3-(2,2,2-tribromoethyl)cyclopropanecarboxylate] the “mortality (%)” value (green rice leafhoppers) was “not less than 90%”.
With CC1(C)C(CC(Cl)(Cl)Cl)C1C(=O)OCc1cccc(Oc2ccccc2)c1 (stereo not drawn) [(1), 3-Phenoxybenzyl 2,2-dimethyl-3-(2,2,2-trichloroethyl)cyclopropanecarboxylate] the “mortality (%)” value [1, 6] was “not less than 90%” and the “mortality (%)” value [1, 5] was “not less than 90%”.
In the case of CC(Cl)(Cl)CC1C(C(=O)OCc2cccc(Oc3ccccc3)c2)C1(C)C (stereo not drawn) [Compound (5), 3-Phenoxybenzyl 2,2-dimethyl-3-(2,2-dichloropropyl)cyclopropanecarboxylate], the “mortality (%)” value [1, 6] is reported as “not less than 90%” and the “mortality (%)” value [1, 5] is reported as “not less than 90%”.
C#CC(OC(=O)[C@@H]1[C@H](CC(C)(Cl)Cl)C1(C)C)c1cccc(Oc2ccccc2)c1 (relative stereo) [(13) [Cis-isomer], 3-Phenoxy-α-ethynylbenzyl 2,2-dimethyl-3-(2,2-dichloropropyl)cyclopropanecarboxylate] gave a remaining at 3.5 h [4] of 100%, a remaining at 72 h [4] of 88% and a remaining at 120 h [4] of 73%. For the same molecule, the “TLm (medium tolerance limit)” value (guppies) was “A (A rank corresponds to TLm of not less than 10 ppm.)”.
With C#CC(OC(=O)C1C(CC(Cl)(Cl)Cl)C1(C)C)c1cccc(Oc2ccc(Cl)cc2)c1 (stereo not drawn) [(21), 3-(4-Chlorophenoxy)-α-ethynylbenzyl 2,2-dimethyl-3-(2,2,2-trichloroethyl)cyclopropanecarboxylate] the “mortality (%)” value (green rice leafhoppers) was “not less than 90%”.
With CC1(C)C(C=C(Cl)Cl)C1C(=O)OCc1cccc(Oc2ccccc2)c1 (mixture of isomers) [Permethrin, 3-phenoxybenzyl(+)-cis,trans-2,2-dimethyl-3-(2,2-dichlorovinyl)cyclopropanecarboxylate, reference compound] the “TLm (medium tolerance limit)” value (guppies) was “C (C rank corresponds to TLm of not more than 0.5 ppm.)”.
For CC1(C)C(CC(Cl)(Cl)Cl)C1C(=O)OC(C#N)c1cccc(Oc2ccc(Br)cc2)c1 (stereo not drawn) [(17), 3-(4-Bromophenoxy)-α-cyanobenzyl 2,2-dimethyl-3-(2,2,2-trichloroethyl)cyclopropanecarboxylate], the “mortality (%)” value [1, 5] was “not less than 90%”.
For CC1(C)[C@H](CC(Cl)(Cl)Cl)[C@H]1C(=O)OC(C#N)c1cccc(Oc2ccccc2)c1 (relative stereo) [(7) [Trans-isomer], 3-Phenoxy-α-cyanobenzyl 2,2-dimethyl-3-(2,2,2-trichloroethyl)cyclopropanecarboxylate], the mortality at 1 µg/fly [3] was 96.7% and the mortality at 10 µg/fly [3] was 100%.
In the case of CC1(C)[C@H](C(=O)OC(C(N)=S)c2cccc(Oc3ccccc3)c2)[C@@H]1CC(Cl)(Cl)Cl (stereo partly drawn) [(27) [Cis-isomer], 3-Phenoxy-α-thiocarbamoylbenzyl 2,2-dimethyl-3-(2,2,2-trichloroethyl)cyclopropanecarboxylate], the “TLm (medium tolerance limit)” value (guppies) is reported as “A (A rank corresponds to TLm of not less than 10 ppm.)”.
